# Results reported in patent publication US6020374A, “Biologically active synthetic dye compounds” (priority 1998, dated 2000).
# Key:
# [1] = test system: 185 kDa protein(s) (p185); test: Tyrosine phosphorylation of p185 in MCF-7 cells (anti-phosphotyrosine immunoblot); type: cell-based
# Description: FIG. 1 is the effect of ATA and EB on tyrosine phosphorylation: MCF-7 cells, grown in 35 mm dishes were solubilized in Buffer A (a) or Buffer B (b-c). The solubilized cells were subjected to 7.5% SDS-PAGE and immunoblotted with an anti-phosphotyrosine antibody. (a) Cells treated for 5 mins. with ATA, EB, each at 300 μg/ml, IGF-1 at 20 ng/ml, or without additives (CON); (b) Cells treated with 300 μg/ml ATA for the indicated times; (c) Cells treated with 30 μg/ml EB for the indicated times; (d) Cells treated for 5 mins. with the indicated concentrations of ATA; (e) Cells treated for 5 mins. with the indicated concentrations of EB. Molecular mass markers (in kDa) are indicated on the right.
# FIG. 2 is the effect of ATA and vanadate on the IGF-1 stimulated tyrosine phosphorylation of p185: A--Cells treated for 5 mins. with the indicated concentrations of IGF-1 in the presence or absence of 300 μg/ml ATA; B--Cells pre-incubated for 3 hours with or without 50 μM vanadate were incubated for 5 mins. with ATA, EB each at 300 μg/ml or with 10 ng/ml IGF-1 in the presence or absence of vanadate. Cytosols extracted in Buffer B were analyzed by immunoblotting with anti-phosphotyrosine antibody as in FIG. 1.
# FIG. 8 is the effect of fractionated ATA on p185 phosphorylation: A--Crude ATA was separated on a Bio-Rad P-4 column and the combined void volume was then gel filtrated on a column of Bio-Rad P-10. The column was calibrated with the following molecular weight markers: DB-Dextran blue; CC-cytochrome C: Ins-insulin; B12-Vitamin B12. B--MCF-7 cells were incubated for 5 mins. with the indicated fractions of ATA (eluted from the P-10 column shown in A), crude ATA, each at 200 μg/ml or IGF-1 at 20 ng/ml. Cytosols, solubilized in Buffer B were subjected to 7.5% SDS-PAGE and immunoblotted with phosphotyrosine antibody.
# (§1) MCF-7 cells were grown in 35 or 100 mm dishes in DMEM with 5% bovine fetal serum. Rat hepato FaO cells were grown in RPMI 1640 medium supplemented with 10% fetal calf serum. Subconfluent monolayers of MCF-7 cells or FaO cells, were deprived of serum for 20 hours prior to each experiment. The medium was removed, and cells were incubated at 37° C. under the conditions as indicated for each experiment. The reaction was terminated by removing the medium and freezing the monolayers with liquid nitrogen. In some experiments, cells were preincubated with 50 μM sodium orthovanadate for 3 hours.
# Cells were solubilized at 4° C. with 0.2 ml/35 mm dish or 2 ml/100 mm dish of the indicated buffer. The solubilized cells were scraped and sedimented by centrifugation at 12,000×g for 30 mins. at 4° C. Aliquots of the supernatants were normalized for protein, mixed with concentrated (5×) Laemmli sample buffer, boiled for 10 mins. and resolved on 7.5 or 12% SDS-PAGE under reducing conditions.
# (§2) Nitrocellulose blots of proteins were incubated with the antibodies, and proteins were detected by enhanced chemiluminescence using horseradish peroxidase-labeled protein A, horseradish peroxidase-labeled anti rabbit IgG or horseradish peroxidase-labeled anti-mouse IgG.
# IR = molecular target: T1, IR (Rattus norvegicus, UniProt P15127); test: Tyrosine phosphorylation of IR in FaO cells; type: cell-based; conditions: 3 hour preincubation with vanadate, 5 min. incubations with EB and insulin
# T1 construct: determined in the rat hepatoma cell line FaO; endogenous in cells; host or cells: FaO (rat hepatoma)
# T1 sequence (P15127 764-1383 limits assumed): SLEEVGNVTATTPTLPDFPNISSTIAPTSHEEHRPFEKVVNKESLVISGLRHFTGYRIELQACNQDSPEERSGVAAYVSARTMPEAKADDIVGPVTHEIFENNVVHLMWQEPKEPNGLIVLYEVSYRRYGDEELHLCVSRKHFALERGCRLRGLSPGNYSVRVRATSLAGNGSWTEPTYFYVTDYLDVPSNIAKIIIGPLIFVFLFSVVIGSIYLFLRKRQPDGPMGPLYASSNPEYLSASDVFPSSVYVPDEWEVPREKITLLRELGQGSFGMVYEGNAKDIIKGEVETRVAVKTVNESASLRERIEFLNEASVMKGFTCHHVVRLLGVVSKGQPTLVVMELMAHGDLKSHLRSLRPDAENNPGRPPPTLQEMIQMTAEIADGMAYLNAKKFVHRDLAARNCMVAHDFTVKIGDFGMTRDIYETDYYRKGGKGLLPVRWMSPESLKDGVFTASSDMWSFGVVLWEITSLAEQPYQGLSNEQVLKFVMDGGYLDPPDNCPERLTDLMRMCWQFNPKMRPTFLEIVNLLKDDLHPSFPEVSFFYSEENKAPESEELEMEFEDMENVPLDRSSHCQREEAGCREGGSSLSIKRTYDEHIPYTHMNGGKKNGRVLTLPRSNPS
# T1 sequence (P15127 27-759 limits assumed): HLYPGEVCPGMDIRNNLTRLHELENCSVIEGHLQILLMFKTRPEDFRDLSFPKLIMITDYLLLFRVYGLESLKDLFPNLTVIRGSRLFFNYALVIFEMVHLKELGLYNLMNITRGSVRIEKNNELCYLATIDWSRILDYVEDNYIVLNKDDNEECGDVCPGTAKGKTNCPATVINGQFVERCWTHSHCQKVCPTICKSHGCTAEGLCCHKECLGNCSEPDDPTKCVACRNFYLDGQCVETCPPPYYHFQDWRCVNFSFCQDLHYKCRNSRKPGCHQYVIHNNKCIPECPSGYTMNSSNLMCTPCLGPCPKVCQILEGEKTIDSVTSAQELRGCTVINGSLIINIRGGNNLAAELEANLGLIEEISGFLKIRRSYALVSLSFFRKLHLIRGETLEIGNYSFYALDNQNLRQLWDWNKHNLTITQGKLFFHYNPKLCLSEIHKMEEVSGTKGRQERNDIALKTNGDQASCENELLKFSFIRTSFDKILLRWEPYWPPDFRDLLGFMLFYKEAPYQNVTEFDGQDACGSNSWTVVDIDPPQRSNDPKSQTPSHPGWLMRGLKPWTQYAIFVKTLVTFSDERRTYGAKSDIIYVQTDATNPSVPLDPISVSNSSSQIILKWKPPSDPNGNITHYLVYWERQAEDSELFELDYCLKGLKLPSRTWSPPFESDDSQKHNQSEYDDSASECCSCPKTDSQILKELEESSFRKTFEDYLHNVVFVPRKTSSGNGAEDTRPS
# Description: (§3) FIG. 9 is the tyrosine phosphorylation of the IR cascade in Fao cells: A--Immunoblot analysis: Fao cells were deprived of serum for 20 hours, then incubated with EB, ATA, at 200 μg/ml or insulin at 600 ng/ml for 5 mins. Cell extracts were subjected to immunoprecipitation with antibodies to: IR β-subunit (αIR), IRS-1 (αIRS-1) and to IRS-2 (αIRS-2). The immunoprecipitates and total cell extracts were analyzed by SDS-PAGE. Proteins were transferred to nitrocellulose papers, and phosphotyrosine containing proteins were probed with anti-phosphotyrosine antibodies (αP-Tyr), antibody to the 85-kDa subunit of PI3-kinase (αp85) and antibodies to active MAPK (α active MAPK). The immunoblots were visualized by ECL (Amersham).
# B--Kinetics of IR phosphorylation: Cells were treated either with 200 μg/ml EB for the indicated times (top panel) or with the indicated concentrations of EB for 5 mins. (middle panel). A 3 hour preincubation with vanadate preceded the 5 min. incubations with EB and insulin (bottom panel).
# as §1
# (§4) Cells were solubilized in Buffer A or C. Extracts were immunoprecipitated at 4° C. with antibodies to IRS-1, IRS-2, IGF-1 or IR receptor or Grb2, adsorbed on protein A-Sepharose beads. The immunocomplexes were pelleted by centrifugation at 12,000×g and washed twice with Buffer A, and twice with Buffer A containing 0.1% Triton x-100. The pellets were then suspended in Laemmli sample buffer and resolved on 7.5% SDS-PAGE.
# as §2
# The ability of EB and ATA to phosphorylate the IR was determined in the rat hepatoma cell line FaO. […] Phosphorylation is maximal after a 1 min. exposure to 70 μg/ml of EB (FIG. 9B, top and middle panels).
# MCF-7 cells = test: Cell death estimation, cycloheximide-exposed MCF-7 cells (trypan blue); type: cell-based; conditions: 30 μg CX, 48 hours, IGF-1 20 μg/ml
# Description: Subconfluent cultures of MCF-7 cells in 35 mm dishes, were deprived of serum for 20 hours and then exposed to 30 μg/ml cycloheximide in the presence or absence of increasing concentrations of fractionated ATA, crude ATA or EB. After 48 hours, the cells were detached with trypsin. The medium and the detached cells were pooled and centrifuged at 1000×g for 10 mins. Cell viability was estimated by adding an equivalent volume of trypan blue solution to an aliquot of suspended cells. Stained and unstained cells were counted on a hemocytometer (10^3 cells were counted for each determination).
# Subconfluent, 20 hours starved MCF-7 cells were exposed to 30 μg/ml
# of cycloheximide in the presence of increasing
# concentrations of fractionated ATA (0, 6, 12, 25, 50 μg/ml). After
# 48 hours, percent of dead cells was
# determined as described under "Experimental procedures". In the
# presence of cycloheximide only, 60-70% of
# the cells were dead after 48 hours.
# Cultures of […] cells were exposed to 30 μg CX for 48 hours in the presence of EB, ATA, IGF-1, or nothing.
# IRS-1 [2] = test: IRS-1 tyrosine phosphorylation and association with p85/Grb2 in MCF-7 cells; type: cell-based; conditions: 5 mins., ATA or EB 300 μg/ml, IGF-1 20 ng/ml
# Description: FIG. 3 is the effect of ATA and EB on tyrosine phosphorylation or IRS-1: MCF-7 cells grown in 100 mm dishes, were treated with ATA or EB, each at 300 μg/ml, or 20 ng/ml IGF-1 for 5 mins. Total cell extracts, solubilized in Buffer A, were subjected to immunoprecipitation with antibodies to IRS-1 (a) or Grb2 (b). The immunocomplexes, precipitated with protein G-Sepharose beads, were subjected to 7.5% SDS-PAGE followed by immunoblotting with a phosphotyrosine antibody, an antibody to the 85-kDa subunit of PI3-kinase or antibody to IRS-1.
# as §4, §2
# (§5) MCF-7 cells were stimulated with ATA, EB or IGF-1, solubilized and immunoprecipitated with anti IRS-1 or IRS-2 antibodies, separated by SDS-PAGE and immunoblotted with anti-phosphotyrosine antibody. […] The association of IRS-1 with Grb-2 was evaluated in lysates from treated cells which were immunoblotted with antibodies to either phosphotyrosine or IRS-1.
# IRS-2 [3] = test: IRS-2 association with p85 of PI3-kinase in MCF-7 cells; type: cell-based; conditions: 5 mins., ATA or EB 300 μg/ml, IGF-1 20 ng/ml
# Description: FIG. 4 is the effect of ATA and EB on tyrosine phosphorylation of IRS-2: MCF-7 cells were treated as in FIG. 3. Total cell extracts, solubilized in Buffer C, were immunoprecipitated with an antibody to IRS-2. The immunocomplexes, precipitated with protein A-Sepharose beads were subjected to 7.5% SDS-PAGE, followed by immunoblotting with a phosphotyrosine antibody and an antibody to the 85-kDA subunit of PI3-kinase.
# as §4, §2, §5
# [4] = test system: MAPK-1 (44 kDa) and MAPK-2 (42 kDa); test: Activation of MAPKs in MCF-7 cells (anti-active MAPK immunoblot); type: cell-based; conditions: 5 mins., ATA, EB each at 300 μg/ml, IGF-1 20 or 40 ng/ml
# Description: FIG. 7 is the effect of ATA and EB on activation of MAPKs: MCF-7 cells were treated for 5 mins. with ATA, EB, each at 300 μg/ml, 20 ng/ml or 40 ng/ml IGF-1. Cell lysates, solubilized in Buffer C, were subjected to 12% SDS-PAGE and immunoblotted with an anti-active MAPK antibody. The membrane, after ECL detection, was stripped of bound antibody and blotted with an anti-MAPK antibody.
# as §2
# The activated forms of MAPKs were detected by anti-active MAPK immunoblotting in the MCF-7 cell's lysates. […] Blotting with anti MAPKs antibodies confirms that similar amounts of MAPKs were present in treated and non-treated cells.
# IRS-1 [5] = test: IRS-1 tyrosine phosphorylation and association with p85 in FaO cells; type: cell-based, rat; conditions: 5 mins., EB 200 μg/ml, insulin 600 ng/ml
# Description: as §3
# as §1, with “The reaction was terminated by removing the medium and freezing the monolayers with liquid nitrogen. In some experiments, cells were preincubated with 50 μM sodium orthovanadate for 3 hours.” left out
# (§6) Nitrocellulose blots of proteins were incubated with the antibodies, and proteins were detected by enhanced chemiluminescence using horseradish peroxidase-labeled protein A, horseradish peroxidase-labeled anti rabbit IgG or horseradish peroxidase-labeled anti-mouse IgG. […]
# IRS-2 [6] = test: IRS-2 tyrosine phosphorylation and association with p85 in FaO cells; type: cell-based, rat; conditions: 5 mins., EB 200 μg/ml, insulin 600 ng/ml
# Description: as §3
# as §1, with “The reaction was terminated by removing the medium and freezing the monolayers with liquid nitrogen. In some experiments, cells were preincubated with 50 μM sodium orthovanadate for 3 hours.” left out
# as §6
# MAPKs 1 and 2 = test: Activation of MAPKs in FaO cells; type: cell-based, rat; conditions: 5 mins., EB 200 μg/ml, insulin 600 ng/ml
# Description: as §3, §2
# In the rat hepatoma cell line FaO, EB and insulin, enhanced IRS-1 and IRS-2 tyrosine phosphorylation and their association with the 85-kDa regulatory subunit of the PI-kinase (FIG. 9A). PI3-kinase activity increases following its association with IRS-1 and IRS-2 (FIG. 9C). MAPKs 1 and 2 were activated by EB and insulin (FIG. 9A).
# [7] = test system: IR, IRS-1 and the 85-kDa regulatory subunit of PI3-kinase; test: In vivo tyrosine phosphorylation of the IR cascade in rat liver; conditions: Sprague-Dawley male rats, portal vein injection, EB 20 mg/rat, insulin 1 u/rat
# Description: A--Immunoblot analysis. Rat liver extracts were subjected to immunoprecipitation and blotting with the indicated antibodies, as described in the legend to FIG. 9A.
# (§7) EB (20 mg/rat) or insulin (1 u/rat) was injected into about 120 g weighing Sprague-Dawley male rats, via the portal vein. Control rats were injected with saline (SAL) alone. The rats were killed and the livers excised and frozen in liquid nitrogen at the indicated times.
# PI3-kinase = test: In vivo PI3-kinase activity in rat liver; conditions: Sprague-Dawley male rats, portal vein, 5 mins. after injection, EB 20 mg/rat, insulin 1 u/rat
# Description: B--Induction of PI3-kinase. PI3-kinase activity, 5 mins. after injection was assayed as described in FIG. 9C. The results are representative of 2 to 4 independent experiments.
# as §7
# 3T3 L1 adipocytes [8] = test: 2-deoxyglucose uptake in 3T3 L1 adipocytes; type: cell-based; conditions: 20 mins., EB, ATA 200 μg/ml, insulin 600 ng/ml
# Description: (§8) FIG. 11 is the metabolic effects in 3T3 L1 adipocytes: Fully differentiated 3T3 L1 adipocytes were incubated with EB, ATA or fuchsin (FUCH) each at 200 μg/ml, or with 600 ng/ml of insulin for 20 mins. (A, B, C) or 5 mins. (D). CON indicates no additive.
# A--2-deoxyglucose uptake. Hexose uptake was measured for 10 mins. using 50 μM 2-deoxy-(^3 H) glucose (1 μCi/ml). Non-specific uptake was determined in the presence of cytochalasin B (50 μM).
# 3T3 L1 adipocytes [9] = test: Glycogen synthesis in 3T3 L1 adipocytes; type: cell-based; conditions: 20 mins., EB, ATA 200 μg/ml, insulin 600 ng/ml
# Description: as §8
# B--Glycogen synthesis. Cells were incubated with (^14 C)-glucose for 10 mins. Radioactivity was determined in the precipitated glycogen fraction.
# 3T3 L1 adipocytes [10] = test: Lipogenesis in 3T3 L1 adipocytes; type: cell-based; conditions: 20 mins., EB, ATA 200 μg/ml, insulin 600 ng/ml
# Description: as §8
# C--Lipogenesis. Cells were incubated with 5 mM(U-^14 C) glucose (1 μCi/ml) for 60 mins. Radioactivity was determined in the cellular lipid fraction.
compound,measurement,setting,value
"[Na+].[Na+].[Na+].[O]=[V]([O-])([O-])[O-] [Vanadate, sodium orthovanadate, reference compound]","Effect on phosphorylation of p185 induced by IGF-1, ATA and EB",[1]; MCF-7 cells pre-incubated 3 hours with 50 μM vanadate,markedly enhanced
same,Effect on IR phosphorylation induced by insulin,IR,enhances
IGF-1: Recombinant human IGF-1 from Boehringer Mannheim,Tyrosine phosphorylation of a 185 kDa protein(s),"[1]; MCF-7 cells, 5 mins., ATA, EB each at 300 μg/ml, IGF-1 at 20 ng/ml",enhanced tyrosine phosphorylation of a 185 kDa protein(s)
same,pp185 (arbitrary units),"[1]; MCF-7 cells, 5 mins., IGF-1 at 20 ng/ml, scanned autoradiogram from FIG. 8B, Control 100","1,751 arbitrary units"
same,Percent dead cells,MCF-7 cells,15 ± 4%
same,Association of IRS-1 with Grb-2,IRS-1 [2],IRS-1 co-precipitated with Grb2
same,Association of p85 subunit of PI3-k with IRS-1,IRS-1 [2],p85 precipitates with IRS-1
same,Phosphorylation of IRS-1,IRS-1 [2],stimulated the phosphorylation of IRS-1
same,Association of p85 subunit of PI3-k with IRS-2,IRS-2 [3],p85 precipitates
same,Phosphorylated (active) isoforms MAPK-1 and MAPK-2,[4],clearly detected
insulin: The hormone insulin,IRS-1 tyrosine phosphorylation and association with the 85-kDa regulatory subunit of PI-kinase,IRS-1 [5],enhanced
same,IRS-2 tyrosine phosphorylation and association with the 85-kDa regulatory subunit of PI-kinase,IRS-2 [6],enhanced
same,Activation of MAPKs 1 and 2,MAPKs 1 and 2,activated
same,"Tyrosine phosphorylation of IR, IRS-1 and 85-kDa subunit of PI3-kinase in liver",[7],"phosphorylated tyrosines of IR, IRS-1 and the 85-kDa of the regulatory subunit of PI3-kinase"
same,PI3-kinase activity in liver,PI3-kinase,increased
same,Glucose uptake,3T3 L1 adipocytes [8],increase glucose uptake
same,Glycogen synthesis,3T3 L1 adipocytes [9],increase
same,Lipogenesis,3T3 L1 adipocytes [10],increase
